{"source": "ChEMBL document CHEMBL1157125", "about": "“Modifications of C-2 on the pyrroloquinoline template aimed at the development of potent herpesvirus antivirals with improved aqueous solubility” (Bioorg Med Chem Lett, 2010)", "assay_type_in_all_cases": "ADME, organism-based", "key": {"[1]": {"assay": "Half life in rat", "details": "in vivo"}, "[2]": {"assay": "Volume of distribution at steady state in rat", "details": "in vivo, read-out: Vdss"}, "[3]": {"assay": "Clearance in rat", "details": "in vivo"}, "[4]": {"assay": "Oral bioavailability in rat", "details": "in vivo"}}}
{"smiles": "O=C(NCc1ccc(Cl)cc1)c1cn2c(CCO)cc3cc(CN4CCOCC4)cc(c1=O)c32", "values": [{"measurement": "half-life", "setting": "[1]", "result": 48, "unit": "min"}, {"measurement": "Vd", "setting": "[2]", "result": 1.7, "unit": "L/kg"}, {"measurement": "clearance", "setting": "[3]", "result": 41.7, "unit": "mL/min/kg"}, {"measurement": "bioavailability", "setting": "[4]", "result": 66, "unit": "%"}]}
